Results on one molecule are retold here after publication PMC10221159, “Investigation of N-Acetyltransferase 2-Mediated Drug Interactions of Amifampridine: In Vitro and In Vivo Evidence of Drug Interactions with Acetaminophen” (Pharmaceutics, 2023).

For data set [1], the target named is T1, NAT2 (Rattus norvegicus, UniProt P50298).
T1 sequence (P50298 1-290): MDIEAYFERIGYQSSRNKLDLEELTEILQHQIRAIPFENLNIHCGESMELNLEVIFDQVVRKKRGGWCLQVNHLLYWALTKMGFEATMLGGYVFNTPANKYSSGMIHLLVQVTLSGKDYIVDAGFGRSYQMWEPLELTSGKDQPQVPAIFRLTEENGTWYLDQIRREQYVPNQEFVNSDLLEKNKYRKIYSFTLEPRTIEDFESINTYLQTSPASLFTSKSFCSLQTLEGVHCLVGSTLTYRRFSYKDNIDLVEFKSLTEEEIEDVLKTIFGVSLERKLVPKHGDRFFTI
The data set is described as follows: Time-dependent inhibition of amifampridine metabolism by acetaminophen, rat liver S9 fraction. In kind it is biochemical. As for the experimental part:
To examine whether acetaminophen could inhibit the metabolic activity of amifampridine in a time-dependent manner, the experiment was conducted by using a high concentration of amifampridine (approximately four-fold Km value) for different pre-incubation times (0, 10, 30, and 60 min) in the presence of different concentrations of acetaminophen (0, 10, 50, 100, and 500 μM). The reaction mixture contained the liver S9 fraction (2 mg/mL protein) and 2 mM acetyl-CoA in potassium phosphate buffer. Then, acetaminophen was added and pre-incubated at different times in a thermomixer at 37 °C. The reaction was then initiated by adding amifampridine (240 μM as a final concentration) and vortex mixing followed by incubation at 37 °C for 15 min. After incubation, the 50 μL aliquot was transferred into a tube containing 200 μL of ice-cold potassium phosphate to dilute it five-fold. […]
Kobs, the observed rate of enzyme loss, was estimated from the negative slopes of the lines using a linear regression analysis of the natural logarithm of metabolite formation as a function of incubation time. The first-order rate constant, Kinact, which represents the maximum rate of enzyme inactivation, was calculated using a nonlinear regression analysis as follows: Kobs=Kinact×I/Ki+I

In data set [2] the target is T1, NAT2. The data set is described as follows: Reversible inhibition mode of acetaminophen on amifampridine metabolism, rat liver S9 fraction (Lineweaver–Burk, secondary plots). In kind it is biochemical. How it is done: To determine the inhibition mechanism of amifampridine metabolism by acetaminophen, various concentrations of amifampridine (40, 80, 160, and 320 μM) were incubated with the rat liver S9 fraction in the presence of different concentrations of acetaminophen (0, 10, 50, 100, and 500 μM). After pre-incubating the reaction mixture containing 2 mM acetyl-CoA for 5 min in a thermomixer at 37 °C, acetaminophen and amifampridine were added and further incubated for 15 min at 37 °C. The samples were diluted five-fold using potassium phosphate buffer, then 50 μL of the diluted samples was transferred into the tube containing 100 μL of IS (5 ng/mL ondansetron in acetonitrile). The mixture was vortexed and centrifuged at 14,000 rpm for 15 min at 4 °C. The supernatant was transferred into vials for HPLC-MS/MS analysis and the concentration of 3-N-acetylamifampridine was determined.
The α value is the degree to which the binding of acetaminophen changes the affinity of the enzyme for amifampridine.

On the set-up of data set [3]: method as in PMID 21074742. The conditions noted are these: humans, oral or intravenous administration; cited from earlier work.
Data set [4] can be described thus: In vivo pharmacokinetic interaction study in rats (plasma). Also on record: species or system rat. The conditions noted are these: male, Sprague-Dawley, rat, plasma, ip, 100 mg/kg, acetaminophen 100 mg/kg intraperitoneally, rats. How it is done:
Male Sprague Dawley (SD) rats (7–8 weeks old, 260–330 g) were purchased from Orient Bio, Inc. (Seongnam, Korea). The rats were housed under a light/dark cycle for 12 h and were left for at least a week before the experiment to adapt to the laboratory environment. Water and food were provided ad libitum. The rats were fasted overnight with free access to water prior to pharmacokinetic studies. The protocols for animal experiments were approved in accordance with the Guidelines for Animal Care and Use of Gachon University (approval no.: GIACUC-R2021006; 13 May 2021).
The rats were anesthetized with a mixture of Rompun and Zoletil by intramuscular injection and received an intraperitoneal injection of vehicle (40:60 PEG400:normal saline; n = 8) or 100 mg/kg acetaminophen (n = 8). After 10 min, 2 mg/kg amifampridine (dissolved in saline) was administered orally. Blood samples were collected at 0, 5, 15, 30, 60, 90, 120, 240, and 360 min and centrifuged at 14,000 rpm for 15 min at 4 °C. For analysis of amifampridine and 3-N-acetylamifampridine, 50 μL of plasma samples was mixed with 100 μL IS solution (5 ng/mL ondansetron in acetonitrile) and the mixture was vortexed followed by centrifugation at 14,000 rpm for 15 min at 4 °C. For the analysis of acetaminophen, 200 μL of IS (tolbutamide 200 ng/mL in methanol) was added to the plasma samples which were diluted 10-fold using the blank plasma and then vortexed for one minute. Further, the samples were centrifuged at 14,000 rpm for 15 min at 4 °C. The supernatants were transferred to LC vials for quantification.
Non-compartment analysis (NCA) was performed to calculate the pharmacokinetic parameters for the in vivo study using WinNonlin (Version 8.3. (Pharsight Corporation, Mountain View, CA, USA)). The area under the plasma concentration–time curve from time 0 to infinity (AUCinf) was calculated by the linear trapezoidal method and standard extrapolation using λ, where λ represents the slope of the terminal phase in a semi-log graph for plasma concentration–time profiles. Renal clearance (CLr) was determined by dividing the accumulated amount of drug excreted in the urine by AUCinf.

In data set [5] the target is T1, NAT2. The data set is described as follows: Inhibition of amifampridine acetylation to 3-N-acetylamifampridine by NAT2 inhibitors, rat liver S9 fraction. The class given is biochemical. To be noted: rat vs human liver S9 fractions. As for the experimental part:
To determine the half maximal inhibitory concentration (IC50) value of NAT2 inhibitors (acetaminophen, apocynin, and cimetidine) on the metabolism of amifampridine to 3-N-acetylamifampridine, the reaction mixture consisted of a liver S9 fraction (2 mg/mL protein) and 2 mM acetyl-CoA in potassium phosphate buffer was pre-incubated for 5 min in a thermomixer at 37 °C. Then, the NAT2 inhibitors (final concentrations of 0, 1, 5, 10, 50, 100, 500, 1000, and 5000 μM) and amifampridine (final concentration of 50 μM) were added to the reaction mixture and incubated for 15 min at 37 °C. An amount of 50 μL of the mixture was then transferred into the tube and mixed with 100 μL of IS (5 ng/mL ondansetron in acetonitrile). The mixture was vortexed and centrifuged at 14,000 rpm for 15 min at 4 °C. The supernatant was transferred into vials for HPLC-MS/MS analysis and the concentration of 3-N-acetylamifampridine was determined.

Data set [6] deals with T2, NAT2 (Homo sapiens, UniProt P11245).
T2 construct: in vitro using S9 fractions obtained from human, rat, and mouse livers; from tissue; host or cells: human liver S9 fraction
T2 sequence (P11245 1-290): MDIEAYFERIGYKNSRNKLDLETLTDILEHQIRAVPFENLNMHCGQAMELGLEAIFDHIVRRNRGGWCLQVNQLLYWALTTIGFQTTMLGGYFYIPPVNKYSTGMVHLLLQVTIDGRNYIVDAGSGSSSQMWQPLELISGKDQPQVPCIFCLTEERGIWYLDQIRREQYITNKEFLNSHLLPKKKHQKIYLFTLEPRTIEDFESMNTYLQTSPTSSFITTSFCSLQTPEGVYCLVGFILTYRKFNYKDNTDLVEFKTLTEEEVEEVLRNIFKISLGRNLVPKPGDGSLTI
Also on record: method as in PMID 26519524, PMID 9918139. The conditions noted are these: sulfamethazine acetylation, cited from earlier work.

The target of data set [7] is T2, NAT2. Description: Inhibition of amifampridine acetylation to 3-N-acetylamifampridine by NAT2 inhibitors, human liver S9 fraction. The class given is biochemical. The conditions noted are these: amifampridine 50 μM, 15 min.

Structures are written as SMILES. “And” between values parts separate entries of the source, which are not always exact repeats. Equal entries are not always repeated. Where two headings read alike, the source gives them in different places.

By kinact is commonly meant the maximal first-order rate at which the target is inactivated. In general, Cmax refers to the maximum level reached in the sampled fluid or tissue. For orientation: Ki means the equilibrium dissociation constant of an inhibitor or competing ligand from its target. In general, IC50 refers to the concentration at which inhibition is half-maximal. For the molecule `CC(=O)Nc1ccc(O)cc1` [acetaminophen], the “decrease of metabolic activity of amifampridine” value on NAT2 [1] (acetaminophen pre-incubated with rat liver S9) is reported as “approximately 0.31 % per min”. The kinact on NAT2 [1] (pre-incubation 0-60 min, amifampridine 240 μM, rat liver S9) was 5.17e-05 s⁻¹. The inhibition mode entry against NAT2 [2] (Lineweaver–Burk plot, rat liver S9) was “mixed inhibition”. Besides, the α value on NAT2 [2] (rat liver S9, mixed inhibition model) came to 3.48. The same molecule returned a αKi at NAT2 [2] (secondary plot (y-intercept), rat liver S9) of 238.8 ± 25.6 µM. Moreover, the Cmax in data set [3] was not above 200 µM; in data set [4], 54800 ng/mL and 362 µM. Besides, the “stronger inhibitory effect in rats compared to humans (IC50 ratio)” value on NAT2 [5] is given as “approximately 29 fold”. The inhibitory constant (Ki) was 2140 µM at NAT2 [6] (human liver cytosol from fast acetylators) and 712 µM at NAT2 [6] (human liver cytosol from slow acetylators). In addition, the IC50 against NAT2 [7] was 4480 ± 742 µM.
